Measurements reported in US12522597B2, “Methods and compositions for modulating splicing” (Skyhawk Therapeutics, Inc., priority 2019, dated 2026).
Where two headings read alike, the source gives them in different places.

Legend:
[1] = test system: Huntingtin (HTT) transcripts; assay: Quantitative splicing assay (HTT), qPCR; assay type: cell-based; details: Homo sapiens, GM04724 (CAG 70/20) Huntington's disease patient lymphoblasts, 24 h
Procedure, shortened: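 GM04724 HD patient lymphoblasts (CAG 70/20) dosed 24 h with compound from 2.5 uM to 0.15 nM (0.1% DMSO). Lysates converted to cDNA; TaqMan qPCR measured compound-induced inclusion of a cryptic exon in HTT intron 49.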

mHTT protein = mHTT protein assay (2B7-MW1, Mesoscale Discovery); assay type: cell-based, human; details: GM04724 (CAG 70/20) Huntington's disease patient lymphoblast cells, 48 hours, 2B7-MW1 MSD; read-out: HTT Potency - Protein EC50 mHTT (average)
Procedure, shortened: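 GM04724 Huntington's patient lymphoblasts (CAG 70/20) were treated for 48 h at 10 μM to 0.6 nM. mHTT was quantified by 2B7-MW1 MSD immunoassay, whose signal depends on polyQ expansion and HTT fragment size. Viability was run on a parallel plate by CellTiter-Glo.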

[2] = test system: MDR1-MDCK cell monolayers; assay: MDCK-MDR1 permeability assay (BBB penetration potential); assay type: in vitro ADME; details: dog, MDCK-MDR1, 120 min, 5 μM, pH 7.4
Protocol: (§1) Each determination is performed in duplicate. […] Analytical conditions are outlined below.

MDR1 = assay: as above; assay type: in vitro ADME; details: dog; for efflux ratio at 120 min, 5 μM: MDCK-MDR1, pH 7.4, MDCK-MDR1: Efflux; for Papp A→B at 120 min, 5 μM: MDCK-MDR1, pH 7.4, MDCK-MDR1: Papp A-B; for Papp B→A at 120 min, 5 μM: MDCK-MDR1, pH 7.4, MDCK-MDR1: Papp B-A
Protocol: as §1

[3] = qPCR HTTex49_50, read-out: HTT Potency - Splicing: E49-50 EC50 (average)
[4] = qPCR cryptic exon 49b inclusion, read-out: HTT Potency - Splicing: E49b EC50 (average)

SMILES	EC50 [1, 3]	EC50 [1, 4]	EC50 (mHTT protein)	MDCK-MDR1: % Recov A-B [2]	MDCK-MDR1: % Recov B-A [2]	efflux ratio at 120 min, 5 μM (MDR1)	Papp A→B at 120 min, 5 μM (MDR1)	Papp B→A at 120 min, 5 μM (MDR1)
Oc1cc(-n2ccc(F)n2)ccc1-c1ccc(O[C@@H]2C[C@H]3CCC[C@H](N3)[C@@H]2F)nn1 (single isomer, unassigned) [115-ENT1]	0.01 to 15 nM	0.01 to 15 nM	16 to 50 nM	44%	70%	3	7.15 ×10⁻⁶ cm/s	20.3 ×10⁻⁶ cm/s
Cn1ccc(-c2ccc(-c3ccc(O[C@@H]4C[C@@]5(C)CCC[C@](C)(N5)[C@@H]4F)nn3)c(O)c2)cc1=O (single isomer, unassigned) [149-ENT2]	16 to 50 nM	16 to 50 nM	16 to 50 nM	76%	73%	24	1.94 ×10⁻⁶ cm/s	45.7 ×10⁻⁶ cm/s
Oc1cc(-c2ccn3ccnc3c2)ccc1-c1ccc(O[C@@H]2C[C@H]3CCC[C@H](N3)[C@@H]2F)nn1 (single isomer, unassigned) [83-ENT1]	501 to 10000 nM	501 to 10000 nM	101 to 500 nM	48%	64%	23	1.05 ×10⁻⁶ cm/s	23.8 ×10⁻⁶ cm/s
Cn1ccc2cc(-c3ccc(O[C@@H]4C[C@@]5(C)CC[C@](C)(N5)[C@@H]4F)nn3)c(O)cc2c1=O (single isomer, unassigned) [127-ENT2]	51 to 100 nM	16 to 50 nM	16 to 50 nM	89%	103%	6	9.29 ×10⁻⁶ cm/s	55.3 ×10⁻⁶ cm/s
Oc1cc(-c2nnco2)ccc1-c1ccc(O[C@H]2C[C@@H]3CC[C@@H](N3)[C@H]2F)nn1 (single isomer, unassigned) [140-ENT1]	101 to 500 nM	101 to 500 nM	101 to 500 nM	92%	95%	2	18.1 ×10⁻⁶ cm/s	43.3 ×10⁻⁶ cm/s
Cn1ccc(-c2cc(O)c(-c3ccc(O[C@@H]4C[C@H]5CCC[C@H](N5)[C@@H]4F)nn3)cc2F)cc1=O (single isomer, unassigned) [58-ENT1]	16 to 50 nM	16 to 50 nM	0.01 to 15 nM	97%	103%	49	0.92 ×10⁻⁶ cm/s	45.1 ×10⁻⁶ cm/s
Cn1ccc(-c2ccc(-c3ccc(O[C@@H]4C[C@H]5CCC[C@H](N5)[C@@H]4F)nn3)c(O)c2)cc1=O (single isomer, unassigned) [54-ENT1]	16 to 50 nM	16 to 50 nM	0.01 to 15 nM	94%	105%	57	1.1 ×10⁻⁶ cm/s	63 ×10⁻⁶ cm/s
Oc1cc(-c2cn[nH]c2)c(F)cc1-c1ccc(O[C@@H]2C[C@H]3CCC[C@H](N3)[C@@H]2F)nn1 (single isomer, unassigned) [56-ENT1]	0.01 to 15 nM	0.01 to 15 nM	0.01 to 15 nM	55%	74%	15	2.63 ×10⁻⁶ cm/s	39 ×10⁻⁶ cm/s
Cn1cc(-c2cc(O)c(-c3ccc(O[C@H]4C[C@@H]5CCC[C@@H](N5)[C@H]4F)nn3)cn2)cn1 (single isomer, unassigned) [64-ENT2]	501 to 10000 nM	501 to 10000 nM	501 to 10000 nM	92%	97%	50	0.21 ×10⁻⁶ cm/s	10.7 ×10⁻⁶ cm/s
Cn1cc(-c2ccc(-c3ccc(O[C@@H]4C[C@H]5CCC[C@H](N5)[C@@H]4F)nn3)c(O)c2F)cn1 (single isomer, unassigned) [119-ENT1]	16 to 50 nM	16 to 50 nM	16 to 50 nM	56%	80%	10	3.4 ×10⁻⁶ cm/s	33 ×10⁻⁶ cm/s
Cn1ccc2cc(O)c(-c3ccc(O[C@@H]4C[C@H]5CC[C@H](N5)[C@@H]4F)nn3)cc2c1=O (single isomer, unassigned) [129-ENT2]	51 to 100 nM	16 to 50 nM	0.01 to 15 nM	72%	79%	9	4.94 ×10⁻⁶ cm/s	45.7 ×10⁻⁶ cm/s
Cn1cc(-c2cc(O)c(-c3ccc(O[C@@H]4C[C@H]5CC[C@H](N5)[C@@H]4F)nn3)cc2F)cn1 (single isomer, unassigned) [61-ENT1]	16 to 50 nM	0.01 to 15 nM	16 to 50 nM	43%	79%	3	4.83 ×10⁻⁶ cm/s	13.8 ×10⁻⁶ cm/s
COc1cc(-c2ccc(-c3ccc(O[C@H]4C[C@]5(C)CC[C@@](C)(N5)[C@H]4F)nn3)c(O)c2)cnn1 (single isomer, unassigned) [157-ENT2]	16 to 50 nM	16 to 50 nM	16 to 50 nM	82%	81%	5	6.79 ×10⁻⁶ cm/s	36.1 ×10⁻⁶ cm/s
Cc1ncc(-c2ccc(-c3ccc(O[C@H]4C[C@@H]5CCC[C@@H](N5)[C@H]4F)nn3)c(O)c2)s1 (single isomer, unassigned) [96-ENT2]	16 to 50 nM	16 to 50 nM	16 to 50 nM	35%	67%	2	6.73 ×10⁻⁶ cm/s	11.6 ×10⁻⁶ cm/s
Cn1cc(-c2ccc(-c3ccc(O[C@H]4C[C@]5(C)CCC[C@@](C)(N5)[C@H]4F)nn3)c(O)c2)cn1 (single isomer, unassigned) [154-ENT1]	16 to 50 nM	0.01 to 15 nM	16 to 50 nM	73%	87%	4	9.33 ×10⁻⁶ cm/s	37.7 ×10⁻⁶ cm/s
Cn1cc(-c2ccc(-c3ccc(O[C@H]4C[C@@H]5CCC[C@@H](N5)[C@H]4F)nn3)c(O)c2)oc1=O (single isomer, unassigned) [97-ENT2]	16 to 50 nM	16 to 50 nM	0.01 to 15 nM	74%	82%	10	3.11 ×10⁻⁶ cm/s	32 ×10⁻⁶ cm/s
Oc1cc(-c2nnco2)ccc1-c1ccc(O[C@@H]2C[C@H]3CCC[C@H](N3)[C@@H]2F)nn1 (single isomer, unassigned) [117-ENT1]	101 to 500 nM	101 to 500 nM	51 to 100 nM	85%	106%	6	7.92 ×10⁻⁶ cm/s	47.5 ×10⁻⁶ cm/s
